Source: patent US8507411B2, “Neoglycorandomization and digitoxin analogs” (priority 2004, dated 2013)
Like-named read-outs stand apart in the source and are kept apart here.

Tests used:
SF-268 = assay: cells; type: cell-based, human; conditions: SF-268 cells
How it was run: (§1)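 RPMI 1640 + 10% FBS (NmuMG: DMEM + 10% FBS + insulin); 10–15k cells/well, 1 h attach; 5-pt 2-fold dose series, 72 h; PBS wash, calcein AM 30 min 37 °C; ex485/em535; 4-PL fit, n ≥ 6.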

NCI/ADR-RES = assay: cells; type: cell-based, human; conditions: NCI/ADR-RES cells
How it was run: as §1

SK-OV-3 = assay: cells; type: cell-based, human; conditions: SK-OV-3 cells
How it was run: as §1

NCI-H460 = assay: High-throughput calcein AM cytotoxicity assay, NCI-H460; type: cell-based, human; conditions: NCI-H460 cells
Text: (§2) Standard errors are depicted with error bars.

A549 = assay: High-throughput calcein AM cytotoxicity assay, A549; type: cell-based, human; conditions: A549 cells
Text: as §2

MCF7 = assay: High-throughput calcein AM cytotoxicity assay, MCF7; type: cell-based, human; conditions: MCF7 cells
Text: as §2

HCT-116 = assay: High-throughput calcein AM cytotoxicity assay, HCT-116; type: cell-based, human; conditions: HCT-116 cells
Text: as §2

Du145 = assay: High-throughput calcein AM cytotoxicity assay, Du145; type: cell-based, human; conditions: Du145 cells
Text: as §2

Hep3B = assay: High-throughput calcein AM cytotoxicity assay, Hep3B; type: cell-based, human; conditions: Hep 3B cells
Text: as §2

NmuMG = assay: cells; type: cell-based, mouse
How it was run: as §1

[1] = NmuMG cells (mouse mammary normal epithelial control line), read-out: IC50
[2] = NmuMG mouse mammary normal epithelial control line, read-out: IC50, NmuMG

SMILES | IC50 (SF-268; read-out: IC50) | IC50 (NCI/ADR-RES; read-out: IC50) | IC50 (SK-OV-3; read-out: IC50) | IC50 (NCI-H460; read-out: IC50) | IC50 (A549; read-out: IC50) | IC50 (MCF7; read-out: IC50) | IC50 (HCT-116; read-out: IC50) | IC50 (Du145; read-out: IC50) | IC50 (Hep3B; read-out: IC50) | IC50 (NmuMG; [1]) | IC50 (SF-268; read-out: IC50, SF-268) | IC50 (NCI/ADR-RES; read-out: IC50, NCI/ADR-RES) | IC50 (SK-OV-3; read-out: IC50, SK-OV-3) | IC50 (NCI-H460; read-out: IC50, NCI-H460) | IC50 (A549; read-out: IC50, A549) | IC50 (MCF7; read-out: IC50, MCF7) | IC50 (HCT-116; read-out: IC50, HCT-116) | IC50 (Du145; read-out: IC50, Du145) | IC50 (Hep3B; read-out: IC50, Hep 3B) | IC50 (NmuMG; [2])
CON(C1CCC2(C)C(CCC3C2CCC2(C)C(C4=CC(=O)OC4)CCC32O)C1)C1OC(CO)C(O)C(O)C1O [40α, D-taloside] | > 25000 nM | > 25000 nM | > 25000 nM | > 25000 nM | > 25000 nM | > 25000 nM | > 25000 nM | > 25000 nM | > 25000 nM | > 25000 nM | – | – | – | – | – | – | – | – | – | –
CON(C1CCC2(C)C(CCC3C2CCC2(C)C(C4=CC(=O)OC4)CCC32O)C1)C1OC(C(=O)O)C(O)C(O)C1O [38β, D-galacturonoside] | – | – | – | – | – | – | – | – | – | – | 2200 nM | 1600 nM | 3100 nM | 1400 nM | 2200 nM | 5000 nM | 2700 nM | 1900 nM | 2100 nM | > 25000 nM
CON([C@H]1CC[C@@]2(C)[C@H](CC[C@@H]3[C@@H]2CC[C@]2(C)[C@@H](C4=CC(=O)OC4)CC[C@]32O)C1)[C@@H]1O[C@H](CO)[C@@H](O)[C@@H](O)[C@@H]1O [20β, D-altroside] | – | – | – | – | – | – | – | – | – | – | 1100 nM | 900 nM | 1100 nM | 620 nM | 540 nM | 1500 nM | 1100 nM | 1200 nM | 350 nM | 900 nM
CON([C@H]1CC[C@@]2(C)[C@H](CC[C@@H]3[C@@H]2CC[C@]2(C)[C@@H](C4=CC(=O)OC4)CC[C@]32O)C1)[C@H]1O[C@@H](CO)[C@@H](O)[C@@H](O)[C@@H]1O [21β, L-galactoside] | – | – | – | – | – | – | – | – | – | – | 1400 nM | 1600 nM | 1600 nM | 2600 nM | 900 nM | 1800 nM | 2100 nM | 2100 nM | 1300 nM | 1000 nM
CON(C1CCC2(C)C(CCC3C2CCC2(C)C(C4=CC(=O)OC4)CCC32O)C1)C1OC(CO)C(O)C(O)C1O [27α, D-mannoside] | – | – | – | – | – | – | – | – | – | > 25000 nM | > 25000 nM | > 25000 nM | > 25000 nM | > 25000 nM | > 25000 nM | > 25000 nM | > 25000 nM | > 25000 nM | > 25000 nM | –
CON(C1CCC2(C)C(CCC3C2CCC2(C)C(C4=CC(=O)OC4)CCC32O)C1)C1OCC(O)C(O)C1O [15α, D-lyxoside] | – | – | – | – | – | – | – | – | – | – | > 25000 nM | > 25000 nM | > 25000 nM | > 25000 nM | > 25000 nM | > 25000 nM | > 25000 nM | > 25000 nM | > 25000 nM | > 25000 nM
CON(C1CCC2(C)C(CCC3C2CCC2(C)C(C4=CC(=O)OC4)CCC32O)C1)C1OC(CO)C(O)C(O)C1O [42α, L-glucoside] | > 25000 nM | > 25000 nM | > 25000 nM | > 25000 nM | > 25000 nM | > 25000 nM | > 25000 nM | > 25000 nM | > 25000 nM | > 25000 nM | – | – | – | – | – | – | – | – | – | –
CON([C@H]1CC[C@@]2(C)[C@H](CC[C@@H]3[C@@H]2CC[C@]2(C)[C@@H](C4=CC(=O)OC4)CC[C@]32O)C1)[C@@H]1OC[C@@H](O)[C@@H](O)[C@H]1O [6β, D-riboside] | – | – | – | – | – | – | – | – | – | – | 1800 nM | 660 nM | 1700 nM | 900 nM | 1020 nM | 3000 nM | 1300 nM | 720 nM | 900 nM | 480 nM
CON([C@H]1CC[C@@]2(C)[C@H](CC[C@@H]3[C@@H]2CC[C@]2(C)[C@@H](C4=CC(=O)OC4)CC[C@]32O)C1)[C@@H]1O[C@H](CO)[C@H](O)[C@@H](O)[C@@H]1O [29β, D-idoside] | – | – | – | – | – | – | – | – | – | – | 1300 nM | 1500 nM | 1500 nM | 1300 nM | 370 nM | 440 nM | 2300 nM | 1300 nM | 300 nM | > 25000 nM
CON([C@H]1CC[C@@]2(C)[C@H](CC[C@@H]3[C@@H]2CC[C@]2(C)[C@@H](C4=CC(=O)OC4)CC[C@]32O)C1)[C@@H]1O[C@H](CF)[C@@H](O)[C@H](O)[C@H]1O [13β, 6-deoxy-6-fluoro-D-glucoside] | – | – | – | – | – | – | – | – | – | – | 4700 nM | 1100 nM | 3400 nM | 1400 nM | 2000 nM | 6200 nM | 4800 nM | 5000 nM | 4600 nM | > 25000 nM
CON([C@H]1CC[C@@]2(C)[C@H](CC[C@@H]3[C@@H]2CC[C@]2(C)[C@@H](C4=CC(=O)OC4)CC[C@]32O)C1)[C@@H]1O[C@H](CO)[C@H](O)[C@H](O)[C@H]1O [22β, D-galactoside] | – | – | – | – | – | – | – | – | – | – | 1200 nM | 800 nM | 1500 nM | 1600 nM | 970 nM | 3000 nM | 1800 nM | 1500 nM | 600 nM | 1500 nM
CON(C1CCC2(C)C(CCC3C2CCC2(C)C(C4=CC(=O)OC4)CCC32O)C1)C1OC(CO)C(O)C(O)C1O [28α, L-idoside] | – | – | – | – | – | – | – | – | – | > 25000 nM | > 25000 nM | > 25000 nM | > 25000 nM | > 25000 nM | > 25000 nM | > 25000 nM | > 25000 nM | > 25000 nM | > 25000 nM | –
CON([C@H]1CC[C@@]2(C)[C@H](CC[C@@H]3[C@@H]2CC[C@]2(C)[C@@H](C4=CC(=O)OC4)CC[C@]32O)C1)[C@@H]1O[C@H](CO)[C@@H](O)[C@H](O)[C@H]1F [12β, 2-deoxy-2-fluoro-D-glucoside] | – | – | – | – | – | – | – | – | – | – | 7000 nM | 2600 nM | 9000 nM | 2900 nM | 3700 nM | 8000 nM | 8000 nM | 9000 nM | 8000 nM | > 25000 nM
CON(C1CCC2(C)C(CCC3C2CCC2(C)C(C4=CC(=O)OC4)CCC32O)C1)C1OC(CO)C(O)C(O)C1O [25α, D-guloside] | – | – | – | – | – | – | – | – | – | > 25000 nM | > 25000 nM | > 25000 nM | > 25000 nM | > 25000 nM | > 25000 nM | > 25000 nM | > 25000 nM | > 25000 nM | > 25000 nM | –
CON(C1CCC2(C)C(CCC3C2CCC2(C)C(C4=CC(=O)OC4)CCC32O)C1)C1OC(CO)C(O)C(O)C1O [20α, D-altroside] | – | – | – | – | – | – | – | – | – | – | > 25000 nM | > 25000 nM | > 25000 nM | > 25000 nM | > 25000 nM | > 25000 nM | > 25000 nM | > 25000 nM | > 25000 nM | > 25000 nM
